Results reported in patent publication US20210162091A1, “WASH-DURABLE, FLUID ABSORBENT SUBSTRATE WITH ANTIMICROBIAL PROPERTIES AND/OR IMPROVED WASHABILITY, AND HYGIENE PRODUCT SUCH AS REUSABLE SANITARY NAPKIN” (Livinguard AG, priority 2015, published 2021).

Key:
[1] = tested on: bacteria (Escherichia coli, Staphylococcus aureus, Pseudomonas aeruginosa, and Salmonella enterica); experiment: Antimicrobial performance against bacteria (AATCC 100:2012, summary in words); type: cell-based; details: single agent, 6% o.w.f. chemical
Method: (§1) All microbiological tests were performed with cultures of the bacteria Escherichia coli American Type Culture Collection (ATCC) 25922, Staphylococcus aureus ATCC 6538, Pseudomonas aeruginosa ATCC 15442, Salmonella enterica ATCC 10708, and of the fungi Candida albicans ATCC 10231, and Aspergillus niger ATCC 16404.

[2] = tested on: fungi (Candida albicans and Aspergillus niger); experiment: Antimicrobial performance against fungi (AATCC 100:2012, summary in words); type: cell-based; details: single agent, 6% o.w.f. chemical
Method: as §1

Row | Compound | Efficiency for killing bacteria ([1]; adhered to polyester) | Efficiency for killing fungi ([2]; adhered to polyester) | Efficiency for killing bacteria ([1]; adhered to cotton) | Efficiency for killing fungi ([2]; adhered to cotton)
1 | CCCCCCCCCCCCCCCCCC[N+](C)(C)CCC[Si](OC)(OC)OC [dimethyloctadecyl[3-(trimethoxysilyl)propyl] ammonium chloride] | about equally efficient in killing bacteria | not efficient for killing fungi |  | 
2 | CCCC1COC(Cn2cncn2)(c2ccc(Cl)cc2Cl)O1 (stereo not drawn) [propiconazole, reference compound] | about as efficient against bacteria as silver and quaternary ammonium organosilane | works well against fungi | not efficient for killing bacteria | efficient for killing fungi
3 | polyhexamethylene biguanide [PHMB] |  |  | about equally efficient for killing bacteria | perform poorly
4 | silver | about equally efficient in killing bacteria | not efficient for killing fungi | about equally efficient for killing bacteria | perform poorly
